The test system of this data set is C2C12 mouse myoblast cells. The data set is described as follows: MTT assay of film leachate toxicity. It counts as cell-based. Conditions: 24 h exposure. The procedure:
Toxicity studies were also performed using the MTT assay to evaluate whether films of 3.0a-c on stainless steel would release toxic levels of paclitaxel or any other leachate during a defined incubation period in cell culture media.
Preparation of leachate: Test samples were melt-pressed to a thickness of 0.4 mm. The melt pressed film was then cut into squares of 1 cm×1 cm. Samples were sterilized by washing with 70% ethanol and subsequently dried for 2 h under UV light. […]
MTT assay: C2C12 mouse myoblast cells were seeded in a Nunclon™ 96-well U bottom transparent polystrol plate to obtain 10,000 cells/well in 100 μL of DMEM containing serum, glutamax and antibiotics as described above. […] After shaking (1 second, 2 mm amp, 654 rpm), the absorbance of the wells at 540 nm was read using an M1000-Pro plate reader (Tecan). The absorbance of wells not containing cells but treated by all of the above steps was subtracted as a background and the cell viability was calculated relative to wells containing cells that were exposed to just culture medium. No (0%) cell viability was detected for the cells exposed to the highest concentrations of the positive control sodium lauryl sulfate, confirming the sensitivity of the assay.

Consider one molecule from patent US20170258970A1, “POLYMER-DRUG CONJUGATE BASED ON A POLYISOOLEFIN-BASED COPOLYMER” (ARLANXEO Singapore Pte. Ltd., priority 2014, published 2017).

SMILES strings stand for the structures.

As for `CCCCCCCCCCCCOS(=O)(=O)[O-].[Na+]` [SDS, sodium dodecyl sulfate], the cell viability reads like this: (at 0.2 μg/mL) under 10%; (highest concentrations of the positive control) 0%.
